Reference: patent US10413532B2, “Pharmaceutical compositions containing a PDE4 inhibitor and a PI3 delta or dual PI3 delta-gamma kinase inhibitor” (Rhizen Pharmaceuticals SA, priority 2012, dated 2019)
Like-named read-outs stand apart in the source and are kept apart here.

Key:
MMP-9 = MMP-9 release from PMA-induced THP-1 cells (gelatin zymography); assay type: cell-based, human; details: compound alone at 300 nM
Experimental: Gelatinase activity of MMP-9 was determined by zymography. Proteins in supernatant (after incubation of THP-1 cells with 50 ng PMA for 24 h) were separated on gels containing 0.1% gelatin (Sigma, USA). Gels were re-natured by incubation in 2.5% Triton X-100 for 30 min, incubated overnight in substrate buffer (50 mMTris-HCl, pH 7.5) containing 10 mM CaCl2 and 0.05% ZnCl2 at 37° C. and stained with Coomassie brilliant blue (0.5%). […] Molecular weight markers (Fermentas, Lithuania) were run with each gel. Band intensity was calculated using ImageJ 1.42 (NIH, USA).

pAkt (S473) = experiment: phospho-Akt (S473) in differentiated U937 cells stimulated with cigarette smoke extract (SDS-PAGE); assay type: cell-based; details: Homo sapiens, U-937; compound alone; differentiated U937, CSE; read-out: IC50 of inhibition of Akt phosphorylation
Experimental: U-937 monocytes were differentiated into macrophages by incubation with 50 ng/ml PMA for 48 h. Cells were trypsinized and plated at a density of 100,000 per well and stimulated with CSE for 2 h in starvation media. Lysates were made using RIPA buffer and run by SDS-PAGE, transferred to PVDF membrane and probed with phospho-Akt (S473) antibody (Cell signaling, USA) followed by anti-rabbit IgG (Cell signaling, USA). Band intensity was calculated using ImageJ 1.42 (NIH, USA).

elastase = experiment: fMLP induced elastase release from human neutrophils; assay type: cell-based; details: compound alone at 300 nM
Experimental: Blood was procured from a local blood bank. Neutrophils were obtained using the dextran sedimentation method. Cells were plated at 100,000 cells per well in a 96-well plate, treated with fMLP (1 μM) and N-Succinyl-Ala-Ala-Ala-p-nitroanalide (1 μM) (Sigma) and incubated for 2 h. Intensity of digested substrate after incubation was determined by measuring the absorbance at 405 nm on a Fluostar Omega (BMG Labtech, NC, USA).

TNFα [1] = experiment: LPS induced TNFα in PBMC; assay type: cell-based; details: 1000 nM alone, LPS 1 μg/ml, 24 h
Experimental: PBMC (peripheral blood mononuclear cells) from whole blood were isolated by density gradient using Histopaque and incubated with the desired concentration of inhibitor for 15 minutes. LPS (1 μg/ml) was added and then incubated for 24 hours. The supernatant was collected and TNFα estimated using an eBioscience TNFα ELISA kit.
PBMC from whole blood were isolated by density gradient using Histopaque and incubated with the desired concentration of inhibitor for 15 minutes. LPS (1 μg/m1) was added and then incubated for 24 hours. The supernatant was collected and TNFα estimated using an eBioscience TNFα ELISA kit.

neutrophil infiltration = experiment: Lipopolysaccharide induced pulmonary neutrophilia in female Wistar rats; assay type: in vivo
Experimental: After the quarantine period, fasted animals were randomized and divided into groups depending on their body weights. Test compound was prepared as a suspension in a vehicle consisting of 0.5% methylcellulose in which Tween 80 was used as a suspending agent. Compounds or vehicle were administered by oral gavage in a volume of 10 mL/kg. Animals were anaesthetized with ketamine and LPS solution was administered intratracheally 30 minutes after compound administration at a dose of 1 mg/kg. Six hours after LPS instillation, animals were exsanguinated under anaesthesia, and the trachea was cannulated, and lungs were lavaged with 5-ml aliquots of heparinised PBS (1 unit/ml) four times through the tracheal cannula (total volume 20 ml). Bronchioalveolar (BAL) fluid was stored at 2-8° C. until assayed for total cell and differential leukocyte count. BAL fluid was centrifuged (500×g for 10 min) and the resulting cell pellet was resuspended in 0.5 ml of heparinised saline. The total numbers of white blood cells were determined in BAL fluid or blood using a cell counter and were adjusted to 1×10^6 cell/ml. Differential cell count was calculated manually. One hundred microliters of the cell suspension was centrifuged using cytospin 3 to prepare a cell smear. The cell smear was stained with a blood staining solution for differentiation and slides were microscopically observed to identify eosinophils according to their morphological characteristics. The number of each cell type among 300 white blood cells in the cell smear was determined and expressed as a percentage of total cells. The number of eosinophil in BALF was calculated.
The procedure for LPS induced pulmonary neutrophilia in female Wistar rats as described in Example 1 was performed with compound A1 and roflumilast.

[2] = system: macrophage and neutrophil infiltration; experiment: Acute cigarette smoke induced cell infiltration in male Balb/c mice; assay type: in vivo; details: acute CS, mouse; for ED50: oral
Experimental: Animals were acclimatized for seven days prior to the start of the experiment. Animals were randomly distributed to various groups based on their body weights. On day 1, mice were administered by test compound or vehicle by the oral route and after 30 mins test compound administration animals were placed in a whole body exposure box. The mice were exposed to the mainstream smoke of 6 cigarettes from day 1 to day 4. Exposure to the smoke of each cigarette lasted for 10 min (cigarettes were completely burned in the first two minutes and followed by an air flow with animal ventilator) followed by exposure for the next 20 min with fresh room air. After every second cigarette an additional break of 20 min with exposure to fresh room air was conducted. Control animals were exposed to the room air chamber. From day 1 to day 4 animals were administered test compound by the oral route. On day 5, 24 hours after the last cigarette smoke (CS) exposure. animals were exsanguinated under anaesthesia, and the trachea was cannulated and the lungs were lavaged with 0.5 ml aliquots of heparinised PBS (1 unit/ml) four times through a tracheal cannula (total volume 2 ml). Bronchioalveolar (BAL) collected was stored at 2-8° C. until assayed for total cell and differential leukocyte count. BAL fluid was centrifuged (500×g for 10 min) and the resulting cell pellet was resuspended in 0.5 ml of heparinised saline. The total number of white blood cells was determined in BAL fluid and blood using a blood cell counter and adjusted to 1×10^6 cell/ml. Differential cell count was calculated manually. Forty microliters of the cell suspension was centrifuged using cytospin 3 to prepare a cell smear. The cell smear was stained with a blood staining solution for differentiation and microscopically observed by identifying each cell according to its morphological characteristics. The number of each cell type among 300 white blood cells in the cell smear were determined and expressed as a percentage, and the number of neutrophils and macrophages in each BAL fluid were calculated.
The procedure for acute cigarette smoke induced cell infiltration in male Balb/c mice described in Example 1 was performed with Compound A1 and roflumilast

[3] = system: macrophage and neutrophil infiltration; experiment: Chronic cigarette smoke induced cell infiltration in male Balb/c mice; assay type: in vivo; details: alone at 1 mg/kg oral; chronic CS, mouse
Experimental: Animals were acclimatized for seven days prior to the start of the experiment. Animals were randomly distributed to various groups based on their body weights. Mice were exposed to the mainstream smoke of 4 cigarettes from day 1 to day 11. Exposure to the smoke of each cigarette lasted for […] (each cigarette was completely burned in the first two minutes, followed by an air flow with animal ventilator) and were exposed for the next 20 min with fresh room air. After every second cigarette an additional break of 20 min with exposure to fresh room air was conducted. Control animals were exposed to the room air chamber. Test compound was administered by the oral route from day 6 to day 11 before 30 mins whole body smoke exposure. On day 12, 24 hours after the last cigarette smoke (CS) exposure animals were exsanguinated under anaesthesia, and the trachea was cannulated and the lungs were lavaged with 0.5 ml aliquots of heparinised PBS (1 unit/nil) four times through tracheal cannula (total volume 2 ml). Bronchioalveolar (BAL) collected was stored at 2-8° C. until assayed for total cell and differential leukocyte count. BAL fluid was centrifuged (500×g for 10 min) and the resulting cell pellet was resuspended in 0.5 ml of heparinised saline. The total number of white blood cells was determined in BAL fluid and blood using a blood cell counter and adjusted to 1×10^6 cell/ml. Differential cell count was calculated manually Forty microliters of the cell suspension was centrifuged using cytospin 3 to prepare a cell smear. The cell smear was stained with a blood staining solution for differentiation and microscopically observed by identifying each cell according to its morphological characteristics. The number of each cell type among 300 white blood cells in the cell smear was determined and expressed as a percentage, and the number of neutrophils and macrophages in each BAL fluid were calculated.

TNFα [4] = experiment: LPS induced TNFα in MH-S (mouse alveolar macrophage) cells; assay type: cell-based; details: 130 nM alone
Experimental: MH-S represents a mouse alveolar macrophage cell line that secretes copious amounts of TNFα upon induction by LPS. Cells were plated at 150,000 cells per well. 10 nM of Compound A1 (final concentration) was added 15 minutes prior to the addition of roflumilast. LPS (1 μg/ml) was added and then incubated for 4 hours. The supernatant was collected after 20 hours and TNFα was estimated using an ELISA kit.

[5] = 3 mg/kg oral, dose-response study
[6] = combination study, alone at 3 mg/kg

## Cc1ccccc1-n1c(Cn2cnc3c(N)ncnc32)nc2cccc(C)c2c1=O [Compound B, 2-((6-amino-9H-purin-9-yl)methyl)-5-methyl-3-o-tolylquinazolin-4(3H)-one]
MMP-9
  effect on MMP-9 release: no effect
pAkt (S473)
  IC50: 780 nM
elastase
  reduction of elastase release: 10%

## C[C@H](Nc1ncnc2[nH]cnc12)c1oc2ccc(F)cc2c(=O)c1-c1cccc(F)c1 [Compound C, (S)-2-(1-(9H-purin-6-ylamino)ethyl)-6-fluoro-3-(3-fluorophenyl)-4H-chromen-4-one]
TNFα [1]
  decrease of TNFα secretion: 20%
Neutrophil infiltration; 0.1 mg/kg oral, rat BAL fluid 6 h after LPS
  percent inhibition of neutrophil infiltration: 14.15%
Neutrophil infiltration; 1 mg/kg oral, dose-response study, rat
  percent inhibition of neutrophil infiltration: 57.76%
Neutrophil infiltration; 3 mg/kg oral, rat
  percent inhibition of neutrophil infiltration: 56.93%
Neutrophil infiltration; 10 mg/kg oral, rat
  percent inhibition of neutrophil infiltration: 81.55%
Neutrophil infiltration; Neutrophil, oral, rat LPS pulmonary neutrophilia, read-out: 50% inhibition (ED50) dose, neutrophil infiltration
  ED50: 1 mg/kg
Neutrophil infiltration; combination study, alone at 1 mg/kg, rat
  inhibition of neutrophil infiltration: 36.56%
[2]; 1 mg/kg oral
  percent inhibition of macrophage infiltration: 34.84%
  percent inhibition of neutrophil infiltration: 29.06%
[2]; [5]
  percent inhibition of macrophage infiltration: 42.09%
  percent inhibition of neutrophil infiltration: 62.38%
[2]; 10 mg/kg oral
  percent inhibition of macrophage infiltration: 61.77%
  percent inhibition of neutrophil infiltration: 74.25%
[2]; Macrophage, read-out: 50% inhibition (ED50) dose, macrophage infiltration
  ED50: 4.4 mg/kg
[2]; Neutrophil, read-out: dose of 50% inhibition (ED50) of neutrophil infiltration
  ED50: 2.1 mg/kg
[2]; [6]
  inhibition of macrophage infiltration: 30.01%
  inhibition of neutrophil infiltration: 41.47%
[3]
  inhibition of macrophage infiltration: −13.30%
  inhibition of neutrophil infiltration: 4.08%

## CCOc1cc([C@@H](CS(C)(=O)=O)N2C(=O)c3cccc(NC(C)=O)c3C2=O)ccc1OC [aprelimilast, reference compound]
TNFα [4]
  decrease in TNFα secretion: ~10%
